Test results reported in patent US7820623B2 (priority 2006, dated 2010).
Bridge positions count the residues as written; N and C are the ends. Square brackets hold non-standard residues; d marks the D form. Peptide text beside a SMILES is read from it. 1Nal = N[C@@H](Cc1cccc2ccccc12)C(=O)O

Tests used:
[1] = system: thapsigargin-induced IL-2 production in human whole blood; conditions: read-out: Analogue Activity (IC50) WB/IL-2
[2] = system: thapsigargin-induced IFN-g production in human whole blood; assay type: cell-based; conditions: read-out: Analogue Activity (IC50) WB/IFNg

| Structure (SMILES) | IC50 [1] | IC50 [2] |
| --- | --- | --- |
| CC[C@H](C)[C@@H]1NC(=O)[C@H](CCCCN)NC(=O)[C@@H](NC(=O)[C@H](CCCCN)NC(=O)[C@@H](NC(=O)[C@H](CC(N)=O)NC(=O)[C@@H](NC(=O)[C@@H](NC(=O)[C@@H](NC(=O)CN)C(C)C)[C@@H](C)CC)[C@@H](C)CC)C(C)C)CSSC[C@@H]2NC(=O)[C@H](CCCCN)NC(=O)CNC(=O)[C@H](Cc3ccccc3)NC(=O)[C@H](CCCNC(=N)N)NC(=O)[C@H](CCSC)NC(=O)CNC(=O)[C@H](C)NC(=O)[C@H](CCCCN)NC(=O)[C@H](C)NC(=O)[C@@H]3CSSC[C@@H](C(=O)N[C@H](C(=O)N4CCC[C@H]4C(=O)N[C@@H](CCCCN)C(=O)O)[C@@H](C)O)NC(=O)[C@H](Cc4c[nH]cn4)NC(=O)[C@H](CSSC[C@H](NC(=O)[C@H](CCC(N)=O)NC(=O)[C@H](CCCNC(=N)N)NC(=O)[C@H](CO)NC1=O)C(=O)N[C@@H](CC(C)C)C(=O)N[C@@H](CCC(=O)O)C(=O)N1CCC[C@H]1C(=O)N3)NC(=O)[C@H](CCCCN)NC(=O)CNC(=O)[C@H](CC(N)=O)NC(=O)[C@H](CCSC)NC2=O [K19A] (H-GVIINVKCKISRQCLEPCAKAGMRFGKCMNGKCHCTPK-OH; disulfide 8-28, 14-33, 18-35) | 0.163 nM | 0.163 nM |
| CC[C@H](C)[C@@H]1NC(=O)[C@H](CCCCN)NC(=O)[C@@H](NC(=O)[C@H](CCCCN)NC(=O)[C@@H](NC(=O)[C@H](CC(N)=O)NC(=O)[C@@H](NC(=O)[C@@H](NC(=O)[C@@H](NC(=O)CN)C(C)C)[C@@H](C)CC)[C@@H](C)CC)C(C)C)CSSC[C@@H]2NC(=O)[C@H](CCCCN)NC(=O)CNC(=O)[C@H](Cc3ccccc3)NC(=O)[C@H](CCCNC(=N)N)NC(=O)[C@H](CCSC)NC(=O)CNC(=O)[C@H](C)NC(=O)[C@H](CCCCN)NC(=O)[C@H](Cc3cccc4ccccc34)NC(=O)[C@@H]3CSSC[C@@H](C(=O)N[C@H](C(=O)N4CCC[C@H]4C(=O)N[C@@H](CCCCN)C(=O)O)[C@@H](C)O)NC(=O)[C@H](Cc4c[nH]cn4)NC(=O)[C@H](CSSC[C@H](NC(=O)[C@H](CCC(N)=O)NC(=O)[C@H](CCCNC(=N)N)NC(=O)[C@H](CO)NC1=O)C(=O)N[C@@H](CC(C)C)C(=O)N[C@@H](CCC(=O)O)C(=O)N1CCC[C@H]1C(=O)N3)NC(=O)[C@H](CCCCN)NC(=O)CNC(=O)[C@H](CC(N)=O)NC(=O)[C@H](CCSC)NC2=O [K19Nal] (H-GVIINVKCKISRQCLEPC[1Nal]KAGMRFGKCMNGKCHCTPK-OH; disulfide 8-28, 14-33, 18-35) | 0.058 nM | 0.099 nM |
| CC[C@H](C)[C@@H]1NC(=O)[C@H](CCCCN)NC(=O)[C@@H](NC(=O)[C@H](CCCCN)NC(=O)[C@@H](NC(=O)[C@H](CC(N)=O)NC(=O)[C@@H](NC(=O)[C@@H](NC(=O)[C@@H](NC(=O)CN)C(C)C)[C@@H](C)CC)[C@@H](C)CC)C(C)C)CSSC[C@@H]2NC(=O)[C@H](CCCCN)NC(=O)CNC(=O)[C@H](Cc3ccccc3)NC(=O)[C@H](CCCNC(=N)N)NC(=O)[C@H](CCSC)NC(=O)CNC(=O)[C@H](C)NC(=O)[C@H](CCCCN)NC(=O)[C@H](CCCNC(=N)N)NC(=O)[C@@H]3CSSC[C@@H](C(=O)N[C@H](C(=O)N4CCC[C@H]4C(=O)N[C@@H](CCCCN)C(=O)O)[C@@H](C)O)NC(=O)[C@H](Cc4c[nH]cn4)NC(=O)[C@H](CSSC[C@H](NC(=O)[C@H](CCC(N)=O)NC(=O)[C@H](CCCNC(=N)N)NC(=O)[C@H](CO)NC1=O)C(=O)N[C@@H](CC(C)C)C(=O)N[C@@H](CCC(=O)O)C(=O)N1CCC[C@H]1C(=O)N3)NC(=O)[C@H](CCCCN)NC(=O)CNC(=O)[C@H](CC(N)=O)NC(=O)[C@H](CCSC)NC2=O [K19R] (H-GVIINVKCKISRQCLEPCRKAGMRFGKCMNGKCHCTPK-OH; disulfide 8-28, 14-33, 18-35) | 0.044 nM | 0.062 nM |
| CC[C@H](C)[C@@H]1NC(=O)[C@H](CCCCN)NC(=O)[C@@H](NC(=O)[C@H](CCCCN)NC(=O)[C@@H](NC(=O)[C@H](CC(N)=O)NC(=O)[C@@H](NC(=O)[C@@H](NC(=O)[C@@H](NC(=O)CN)C(C)C)[C@@H](C)CC)[C@@H](C)CC)C(C)C)CSSC[C@@H]2NC(=O)[C@H](CCCCN)NC(=O)CNC(=O)[C@H](Cc3ccccc3)NC(=O)[C@H](CCCNC(=N)N)NC(=O)[C@H](CCSC)NC(=O)CNC(=O)[C@H](C)NC(=O)[C@H](C)NC(=O)[C@H](CCCCN)NC(=O)[C@@H]3CSSC[C@@H](C(=O)N[C@H](C(=O)N4CCC[C@H]4C(=O)N[C@@H](CCCCN)C(=O)O)[C@@H](C)O)NC(=O)[C@H](Cc4c[nH]cn4)NC(=O)[C@H](CSSC[C@H](NC(=O)[C@H](CCC(N)=O)NC(=O)[C@H](CCCNC(=N)N)NC(=O)[C@H](CO)NC1=O)C(=O)N[C@@H](CC(C)C)C(=O)N[C@@H](CCC(=O)O)C(=O)N1CCC[C@H]1C(=O)N3)NC(=O)[C@H](CCCCN)NC(=O)CNC(=O)[C@H](CC(N)=O)NC(=O)[C@H](CCSC)NC2=O [K20A] (H-GVIINVKCKISRQCLEPCKAAGMRFGKCMNGKCHCTPK-OH; disulfide 8-28, 14-33, 18-35) | 0.379 nM | 0.379 nM |
| CC[C@H](C)[C@@H]1NC(=O)[C@H](CCCCN)NC(=O)[C@@H](NC(=O)[C@H](CCCCN)NC(=O)[C@@H](NC(=O)[C@H](CC(N)=O)NC(=O)[C@@H](NC(=O)[C@@H](NC(=O)[C@@H](NC(=O)CN)C(C)C)[C@@H](C)CC)[C@@H](C)CC)C(C)C)CSSC[C@@H]2NC(=O)[C@H](CCCCN)NC(=O)CNC(=O)[C@H](Cc3ccccc3)NC(=O)[C@H](CCCNC(=N)N)NC(=O)[C@H](CCSC)NC(=O)CNC(=O)[C@H](C)NC(=O)[C@H](Cc3cccc4ccccc34)NC(=O)[C@H](CCCCN)NC(=O)[C@@H]3CSSC[C@@H](C(=O)N[C@H](C(=O)N4CCC[C@H]4C(=O)N[C@@H](CCCCN)C(=O)O)[C@@H](C)O)NC(=O)[C@H](Cc4c[nH]cn4)NC(=O)[C@H](CSSC[C@H](NC(=O)[C@H](CCC(N)=O)NC(=O)[C@H](CCCNC(=N)N)NC(=O)[C@H](CO)NC1=O)C(=O)N[C@@H](CC(C)C)C(=O)N[C@@H](CCC(=O)O)C(=O)N1CCC[C@H]1C(=O)N3)NC(=O)[C@H](CCCCN)NC(=O)CNC(=O)[C@H](CC(N)=O)NC(=O)[C@H](CCSC)NC2=O [K20Nal] (H-GVIINVKCKISRQCLEPCK[1Nal]AGMRFGKCMNGKCHCTPK-OH; disulfide 8-28, 14-33, 18-35) | 0.074 nM | 0.125 nM |
| CC[C@H](C)[C@@H]1NC(=O)[C@H](CCCCN)NC(=O)[C@@H](NC(=O)[C@H](CCCCN)NC(=O)[C@@H](NC(=O)[C@H](CC(N)=O)NC(=O)[C@@H](NC(=O)[C@@H](NC(=O)[C@@H](NC(=O)CN)C(C)C)[C@@H](C)CC)[C@@H](C)CC)C(C)C)CSSC[C@@H]2NC(=O)[C@H](CCCCN)NC(=O)CNC(=O)[C@H](Cc3ccccc3)NC(=O)[C@H](CCCNC(=N)N)NC(=O)[C@H](CCSC)NC(=O)CNC(=O)[C@H](C)NC(=O)[C@H](CCCNC(=N)N)NC(=O)[C@H](CCCCN)NC(=O)[C@@H]3CSSC[C@@H](C(=O)N[C@H](C(=O)N4CCC[C@H]4C(=O)N[C@@H](CCCCN)C(=O)O)[C@@H](C)O)NC(=O)[C@H](Cc4c[nH]cn4)NC(=O)[C@H](CSSC[C@H](NC(=O)[C@H](CCC(N)=O)NC(=O)[C@H](CCCNC(=N)N)NC(=O)[C@H](CO)NC1=O)C(=O)N[C@@H](CC(C)C)C(=O)N[C@@H](CCC(=O)O)C(=O)N1CCC[C@H]1C(=O)N3)NC(=O)[C@H](CCCCN)NC(=O)CNC(=O)[C@H](CC(N)=O)NC(=O)[C@H](CCSC)NC2=O [K20R] (H-GVIINVKCKISRQCLEPCKRAGMRFGKCMNGKCHCTPK-OH; disulfide 8-28, 14-33, 18-35) | 0.067 nM | 0.083 nM |
| CC[C@H](C)[C@@H]1NC(=O)[C@H](CCCCN)NC(=O)[C@@H](NC(=O)[C@H](CCCCN)NC(=O)[C@@H](NC(=O)[C@H](CC(N)=O)NC(=O)[C@@H](NC(=O)[C@@H](NC(=O)[C@@H](NC(=O)CN)C(C)C)[C@@H](C)CC)[C@@H](C)CC)C(C)C)CSSC[C@@H]2NC(=O)[C@H](CCC(=O)O)NC(=O)CNC(=O)[C@H](Cc3ccccc3)NC(=O)[C@H](CCCNC(=N)N)NC(=O)[C@H](CCSC)NC(=O)CNC(=O)[C@H](C)NC(=O)[C@H](CCCCN)NC(=O)[C@H](CCCCN)NC(=O)[C@@H]3CSSC[C@@H](C(=O)N[C@H](C(=O)N4CCC[C@H]4C(=O)N[C@@H](CCCCN)C(=O)O)[C@@H](C)O)NC(=O)[C@H](Cc4c[nH]cn4)NC(=O)[C@H](CSSC[C@H](NC(=O)[C@H](CCC(N)=O)NC(=O)[C@H](CCCNC(=N)N)NC(=O)[C@H](CO)NC1=O)C(=O)N[C@@H](CC(C)C)C(=O)N[C@@H](CCC(=O)O)C(=O)N1CCC[C@H]1C(=O)N3)NC(=O)[C@H](CCCCN)NC(=O)CNC(=O)[C@H](CC(N)=O)NC(=O)[C@H](CCSC)NC2=O [K27E] (H-GVIINVKCKISRQCLEPCKKAGMRFGECMNGKCHCTPK-OH; disulfide 8-28, 14-33, 18-35) | 5.55 nM | 7.14 nM |
| CC[C@H](C)[C@@H]1NC(=O)[C@H](CCCCN)NC(=O)[C@@H](NC(=O)[C@H](CCCCN)NC(=O)[C@@H](NC(=O)[C@H](CC(N)=O)NC(=O)[C@@H](NC(=O)[C@@H](NC(=O)[C@@H](NC(=O)CN)C(C)C)[C@@H](C)CC)[C@@H](C)CC)C(C)C)CSSC[C@@H]2NC(=O)[C@H](Cc3cccc4ccccc34)NC(=O)CNC(=O)[C@H](Cc3ccccc3)NC(=O)[C@H](CCCNC(=N)N)NC(=O)[C@H](CCSC)NC(=O)CNC(=O)[C@H](C)NC(=O)[C@H](CCCCN)NC(=O)[C@H](CCCCN)NC(=O)[C@@H]3CSSC[C@@H](C(=O)N[C@H](C(=O)N4CCC[C@H]4C(=O)N[C@@H](CCCCN)C(=O)O)[C@@H](C)O)NC(=O)[C@H](Cc4c[nH]cn4)NC(=O)[C@H](CSSC[C@H](NC(=O)[C@H](CCC(N)=O)NC(=O)[C@H](CCCNC(=N)N)NC(=O)[C@H](CO)NC1=O)C(=O)N[C@@H](CC(C)C)C(=O)N[C@@H](CCC(=O)O)C(=O)N1CCC[C@H]1C(=O)N3)NC(=O)[C@H](CCCCN)NC(=O)CNC(=O)[C@H](CC(N)=O)NC(=O)[C@H](CCSC)NC2=O [K27Nal] (H-GVIINVKCKISRQCLEPCKKAGMRFG[1Nal]CMNGKCHCTPK-OH; disulfide 8-28, 14-33, 18-35) | 15 nM | 27 nM |
